Activity calls are given as the source filed them. No cut-off for these calls is given here.
Key:
[1] = target: T1, Endothelial lipase (Homo sapiens) (UniProt Q9Y5X9); test: Ratio of IC50 for endothelial lipase in human HT1080 cells using HDL as substrate to IC50 for endothelial lipase in human HT1080 cells using PED-A1 containing DMPG vesicles as substrate; format: cell-based
T1 sequence (whole entry): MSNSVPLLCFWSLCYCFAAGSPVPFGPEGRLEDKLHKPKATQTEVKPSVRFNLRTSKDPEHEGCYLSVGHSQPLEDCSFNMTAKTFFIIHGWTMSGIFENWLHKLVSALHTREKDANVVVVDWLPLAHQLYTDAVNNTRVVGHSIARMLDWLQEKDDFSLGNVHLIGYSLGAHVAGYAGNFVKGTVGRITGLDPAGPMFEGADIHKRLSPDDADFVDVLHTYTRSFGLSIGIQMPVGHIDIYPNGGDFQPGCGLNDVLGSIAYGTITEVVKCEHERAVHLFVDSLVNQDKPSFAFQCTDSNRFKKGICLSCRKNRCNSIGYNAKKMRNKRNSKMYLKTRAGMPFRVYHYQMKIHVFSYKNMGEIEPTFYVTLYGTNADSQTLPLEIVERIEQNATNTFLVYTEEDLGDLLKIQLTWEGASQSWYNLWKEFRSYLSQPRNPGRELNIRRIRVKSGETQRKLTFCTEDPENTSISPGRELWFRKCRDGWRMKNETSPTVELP

[2] = target: T2, Endothelial lipase (Homo sapiens, UniProt Q9Y5X9); test: Inhibition of endothelial lipase in human HT1080 cells using PED-A1 containing DMPG vesicles as substrate pretreated for 20 mins followed by substrate addition and measured every 20 secs for 10 mins by fluorescence assay; format: cell-based
T2 sequence (Q9Y5X9 whole entry): T1 sequence (whole entry)

[3] = target: T2, Endothelial lipase; test: Inhibition of endothelial lipase in human HT1080 cells using HDL as substrate pretreated for 10 mins followed by substrate addition and measured after 30 mins by LC/MS/MS analysis; format: cell-based
[4] = Total AUC in CD1 mouse at 1 mg/kg, po administered as bolus dose; format: ADME, organism-based; set-up: dose 1 mg/kg, route oral, time AUCmax; conditions: in vivo
[5] = target: T3, Lipoprotein lipase (Homo sapiens, UniProt P06858); test: Inhibition of recombinant human LPL expressed in African green monkey COS7 cells using DGGR/DMPG vesicles as substrate pretreated for 10 mins followed by substrate addition and measured for 5 mins
T3 sequence (P06858 whole entry): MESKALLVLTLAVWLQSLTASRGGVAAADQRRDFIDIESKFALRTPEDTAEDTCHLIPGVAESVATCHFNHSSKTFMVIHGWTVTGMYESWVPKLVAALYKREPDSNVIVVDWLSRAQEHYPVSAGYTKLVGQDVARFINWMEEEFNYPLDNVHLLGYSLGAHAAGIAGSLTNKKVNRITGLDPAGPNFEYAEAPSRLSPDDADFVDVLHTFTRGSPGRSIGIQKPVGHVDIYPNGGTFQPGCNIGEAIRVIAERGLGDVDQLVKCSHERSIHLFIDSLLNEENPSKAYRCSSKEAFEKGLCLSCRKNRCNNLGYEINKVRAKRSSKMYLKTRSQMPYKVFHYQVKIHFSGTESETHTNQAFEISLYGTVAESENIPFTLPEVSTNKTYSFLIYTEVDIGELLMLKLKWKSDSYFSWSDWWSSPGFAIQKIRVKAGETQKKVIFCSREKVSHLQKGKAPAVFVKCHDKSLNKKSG

[6] = Clearance in CD1 mouse at 1 mg/kg, iv administered as bolus dose; format: ADME, organism-based; conditions: in vivo
[7] = Half life in CD1 mouse at 1 mg/kg, po administered as bolus dose; format: ADME, organism-based; conditions: in vivo
[8] = Cmax in CD1 mouse at 1 mg/kg, iv administered as bolus dose; format: ADME, organism-based; set-up: dose 1 mg/kg, route intravenous; conditions: in vivo
[9] = Dissociation constant, pKa of the compound; format: physicochemical
[10] = Total AUC in CD1 mouse at 1 mg/kg, iv administered as bolus dose; format: ADME, organism-based; set-up: dose 1 mg/kg, time AUCmax, route intravenous; conditions: in vivo
[11] = Cmax in CD1 mouse at 1 mg/kg, po administered as bolus dose; format: ADME, organism-based; set-up: dose 1 mg/kg, route oral; conditions: in vivo
[12] = target: T4, Hepatic triacylglycerol lipase (Homo sapiens, UniProt P11150); test: Inhibition of recombinant human HL expressed in African green monkey COS7 cells using HDL as substrate pretreated for 10 mins followed by substrate addition and measured after 30 mins by LC/MS/MS analysis
T4 sequence (P11150 whole entry): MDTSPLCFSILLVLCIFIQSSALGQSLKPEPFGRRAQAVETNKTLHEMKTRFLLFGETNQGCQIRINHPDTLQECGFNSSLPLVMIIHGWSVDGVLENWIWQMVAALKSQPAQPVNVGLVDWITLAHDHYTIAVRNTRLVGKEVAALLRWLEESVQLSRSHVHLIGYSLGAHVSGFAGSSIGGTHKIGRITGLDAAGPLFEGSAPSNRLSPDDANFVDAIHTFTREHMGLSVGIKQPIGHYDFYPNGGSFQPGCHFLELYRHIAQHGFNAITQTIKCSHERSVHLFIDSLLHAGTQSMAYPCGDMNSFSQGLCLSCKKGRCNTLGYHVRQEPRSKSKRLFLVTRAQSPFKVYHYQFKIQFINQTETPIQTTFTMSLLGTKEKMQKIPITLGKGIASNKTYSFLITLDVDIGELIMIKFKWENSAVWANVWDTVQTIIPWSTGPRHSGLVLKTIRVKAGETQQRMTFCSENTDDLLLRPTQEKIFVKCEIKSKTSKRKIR

[13] = Oral bioavailability in CD1 mouse at 1 mg/kg administered as bolus dose; format: ADME, organism-based; conditions: in vivo
[14] = Half life in CD1 mouse at 1 mg/kg, iv administered as bolus dose; format: ADME, organism-based; conditions: in vivo
[15] = system: Mus musculus; test: Effect on plasma HDL-C level in C57BL/6J mouse at 10 to 50 mg/kg, po qd for 5 days measured at 1 day for 5 days; format: functional, organism-based
[16] = target: T5, Endothelial lipase (Mus musculus) (UniProt Q9WVG5); test: Competitive inhibition of recombinant mouse endothelial lipase expressed in HEK293F cells using varying levels of HDL as substrate pretreated for 10 mins followed by substrate addition and measured after 30 mins by LC/MS/MS analysis
T5 sequence (whole entry): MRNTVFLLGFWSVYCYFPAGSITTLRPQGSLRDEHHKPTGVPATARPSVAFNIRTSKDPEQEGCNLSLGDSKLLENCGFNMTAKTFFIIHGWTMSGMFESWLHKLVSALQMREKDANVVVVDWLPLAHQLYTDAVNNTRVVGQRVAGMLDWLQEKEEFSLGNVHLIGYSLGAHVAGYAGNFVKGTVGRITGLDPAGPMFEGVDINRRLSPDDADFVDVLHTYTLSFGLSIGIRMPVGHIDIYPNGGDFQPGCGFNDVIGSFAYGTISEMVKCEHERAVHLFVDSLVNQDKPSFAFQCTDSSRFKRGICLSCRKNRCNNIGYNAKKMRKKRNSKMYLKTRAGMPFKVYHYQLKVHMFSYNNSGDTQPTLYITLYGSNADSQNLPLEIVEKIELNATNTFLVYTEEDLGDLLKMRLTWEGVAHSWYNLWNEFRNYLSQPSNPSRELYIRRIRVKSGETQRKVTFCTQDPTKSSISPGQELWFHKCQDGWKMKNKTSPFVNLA

[17] = target: T1, Endothelial lipase (Homo sapiens); test: Competitive inhibition of endothelial lipase in human HT1080 cells using varying level of HDL as substrate pretreated for 10 mins followed by substrate addition and measured after 30 mins by LC/MS/MS analysis; format: cell-based
[18] = organism: Homo sapiens; test: Selectivity ratio of IC50 for recombinant human HL expressed in African green monkey COS7 cells using HDL as substrate to IC50 for endothelial lipase in human HT1080 cells using HDL as substrate; format: cell-based
[19] = organism: Homo sapiens; test: Selectivity ratio of IC50 for MAGL (unknown origin) to IC50 for endothelial lipase in human HT1080 cells using PED-A1 containing DMPG vesicles as substrate; format: cell-based
[20] = organism: Homo sapiens; test: Selectivity ratio of IC50 for recombinant human PL expressed in HEK293F cells to IC50 for endothelial lipase in human HT1080 cells using PED-A1 containing DMPG vesicles as substrate; format: cell-based
[21] = organism: Homo sapiens; test: Selectivity ratio of IC50 for recombinant human LPL expressed in African green monkey COS7 cells to IC50 for endothelial lipase in human HT1080 cells using PED-A1 containing DMPG vesicles as substrate; format: cell-based
[22] = target: T1, Endothelial lipase (Homo sapiens); test: Reversible inhibition of endothelial lipase in human HT1080 cells at 2 uM using PED-A1 containing DMPG vesicles as substrate pretreated for 20 mins followed by compound washout prior to substrate addition and measured every 20 secs for 10 mins by fluorescence assay; format: cell-based

Ratio IC50 [1]	IC50 [2] [nM]	IC50 [3] [nM]	SMILES	also measured
11 to 150	–	–	O=C(NCCCc1ccc(Cl)c(Cl)c1)C1=C(O)C(=O)N(Cc2ccccc2)C1	–
11 to 150	30	3520	CCN1CC(C(=O)NCCCc2ccc(Cl)c(Cl)c2)=C(O)C1=O	–
> 50	< 10	3020	CCN1CC(C(=O)NCCCc2ccc(Cl)c(Cl)c2)=C(NC)C1=O	–
60 to 100	59	5750	CN1C(=O)C(O)=C(C(=O)NCCCc2ccc(Cl)c(Cl)c2)C1c1ccccc1Cl (centres undefined)	–
11 to 150	–	826	O=C(NCCCc1ccc(Cl)c(Cl)c1)C1=C(O)C(=O)N(CCOc2ccccc2)C1	–
60 to 100	29	1770	CN1C(=O)C(O)=C(C(=O)NCCCc2ccc(Cl)c(Cl)c2)C1CC(C)(C)C (centres undefined)	–
11 to 150	41	1760	CN1CC(C(=O)NCCCc2ccc(Cl)c(Cl)c2)=C(O)C1=O	AUC [4]: 18 µM·h; IC50 [5]: > 37000 nM; clearance [6]: 2.1 mL/min/kg; half-life [7]: 3.2 h; Cmax [8]: 32 µM; pKa [9]: 4.8; AUC [10]: 24 µM·h; Cmax [11]: 8.2 µM; IC50 [12]: 76 nM; bioavailability [13]: 76%; half-life [14]: 3.4 h
–	296	–	CN1CC(C(=O)NCCc2ccc(Cl)c(Cl)c2)=C(O)C1=O	–
60 to 100	88	5290	CN1C(=O)C(O)=C(C(=O)NCCCc2ccc(Cl)c(Cl)c2)C1C1CC1 (centres undefined)	–
–	61	–	Cn1ccc(C(=O)NCCCc2ccc(Cl)c(Cl)c2)c(O)c1=O	AUC [4]: 16 µM·h; IC50 [5]: > 90000 nM; clearance [6]: 2.5 mL/min/kg; half-life [7]: 2.9 h; Cmax [8]: 25 µM; pKa [9]: 6.5; AUC [10]: 19 µM·h; inhibition [22]: Active; Cmax [11]: 2 µM; IC50 [12]: 16 nM; bioavailability [13]: 82%; half-life [14]: 4.9 h

The remaining lines, values behind:

SMILES	Ratio IC50 [1]	IC50 [2] [nM]	IC50 [3] [nM]	also measured
CCN1CC(C(=O)NCCCc2ccc(Cl)c(Cl)c2)=C(NCCCN2CCCCC2)C1=O	> 50	25	4210	–
CN1CC(C(=O)NCCCc2ccccc2)=C(O)C1=O	–	5830	–	–
CCN1CC(C(=O)NCCCc2ccc(Cl)c(Cl)c2)=C(NCCOC(C)C)C1=O	> 50	19	945	–
O=C(NCCCc1ccc(Cl)c(Cl)c1)C1=C(O)C(=O)N(CCN2CCOCC2)C1	–	190	–	–
CCN1CC(C(=O)NCCCc2ccc(Cl)c(Cl)c2)=C(NCCc2ccncc2)C1=O	> 50	59	5990	–
CCN1CC(C(=O)NC(C)CCc2ccc(Cl)c(Cl)c2)=C(O)C1=O (racemic)	–	44	264	–
CCN1CC(C(=O)NC(C)CCc2ccc(Cl)c(Cl)c2)=C(O)C1=O (stereo in doubt; 7c)	–	–	–	Activity [15]: inactive; inhibition [16]: inactive; inhibition [17]: inactive; Ratio IC50 [18]: 12; Ratio IC50 [19]: > 250; Ratio IC50 [20]: > 250; Ratio IC50 [21]: > 250
CS(=O)(=O)NC(=O)CCN1CC(C(=O)NCCCc2ccc(Cl)c(Cl)c2)=C(O)C1=O	11 to 150	95	1050	–
CCN1CC(C(=O)NC(C)CCc2ccc(Cl)c(Cl)c2)=C(O)C1=O (stereo in doubt; 7d)	–	910	835	–
O=C(NCCCc1ccc(Cl)c(Cl)c1)C1=C(O)C(=O)N(CCCN2CCCC2=O)C1	11 to 150	19	2440	–

From ChEMBL document CHEMBL4196117, “PK/PD Disconnect Observed with a Reversible Endothelial Lipase Inhibitor” (ACS Med Chem Lett, 2018)
